Values joined by “and” are separate entries in the source; they are usually repeats but may differ in a detail not shown here. Equal entries are not always repeated. Inconclusive results and toxic doses are left out. No stated cut-off is given here; in the data, active means T/C of 150% or more; inactive means T/C below 125%.
Tested on: L1210 leukemia ip in BDF1 mice, survival T/C
Test: NCI In Vivo Anticancer Drug Screen. Data for tumor model L1210 Leukemia (intraperitoneal) in B6D2F1 (BDF1) mice
Settings: endpoint: mean survival time, higher = longer survival
Outline: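 Tumor was transplanted into mice, which were then dosed with test compound or vehicle alone. Survival was recorded for each group, and the treated figure was expressed relative to the control figure.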

[1] = dose: 200.0 mg/kg/injection, schedule: Q01DX001 (ip), vehicle: saline
[2] = dose: 400.0 mg/kg/injection, schedule: Q01DX001 (ip), vehicle: saline
[3] = dose: 100.0 mg/kg/injection, schedule: Q01DX001 (ip), vehicle: saline
[4] = dose: 100.0 mg/kg/injection, schedule: Q04DX003 (ip), vehicle: Klucel (hydroxypropylcellulose) (HPC)
[5] = dose: 200.0 mg/kg/injection, schedule: Q04DX003 (ip), vehicle: Klucel (hydroxypropylcellulose) (HPC)
[6] = dose: 400.0 mg/kg/injection, schedule: Q04DX003 (ip), vehicle: Klucel (hydroxypropylcellulose) (HPC)
[7] = dose: 100.0 mg/kg/injection, schedule: Q04DX003 (ip), vehicle: saline with Tween-80
[8] = dose: 200.0 mg/kg/injection, schedule: Q04DX003 (ip), vehicle: saline with Tween-80
[9] = dose: 400.0 mg/kg/injection, schedule: Q04DX003 (ip), vehicle: saline with Tween-80
[10] = dose: 100.0 mg/kg/injection, schedule: Q01DX009 (ip), vehicle: Klucel (hydroxypropylcellulose) (HPC)
[11] = dose: 200.0 mg/kg/injection, schedule: Q01DX009 (ip), vehicle: Klucel (hydroxypropylcellulose) (HPC)
[12] = dose: 400.0 mg/kg/injection, schedule: Q01DX009 (ip), vehicle: Klucel (hydroxypropylcellulose) (HPC)
[13] = dose: 50.0 mg/kg/injection, schedule: Q01DX001 (ip), vehicle: carboxymethylcellulose (CMC)
[14] = dose: 100.0 mg/kg/injection, schedule: Q01DX001 (ip), vehicle: carboxymethylcellulose (CMC)
[15] = dose: 400.0 mg/kg/injection, schedule: Q01DX001 (ip), vehicle: carboxymethylcellulose (CMC)
[16] = dose: 100.0 mg/kg/injection, schedule: Q04DX003 (ip), vehicle: saline
[17] = dose: 100.0 mg/kg/injection, schedule: Q01DX009 (ip), vehicle: saline with Tween-80
[18] = dose: 200.0 mg/kg/injection, schedule: Q01DX009 (ip), vehicle: saline with Tween-80
[19] = dose: 400.0 mg/kg/injection, schedule: Q01DX009 (ip), vehicle: saline with Tween-80

Measured: T/C

CCCN(CCC#N)C(=S)Nc1ccc(C)c(C)c1
inactive: dose: 100.0 mg/kg/injection, schedule: Q04DX002 (ip), vehicle: Klucel (hydroxypropylcellulose) (HPC) 94 % of control | dose: 200.0 mg/kg/injection, schedule: Q04DX002 (ip), vehicle: Klucel (hydroxypropylcellulose) (HPC) 97 % of control | dose: 400.0 mg/kg/injection, schedule: Q04DX002 (ip), vehicle: Klucel (hydroxypropylcellulose) (HPC) 94 % of control

N#Cc1ccc(C(CCCCC(Cc2ccccc2)c2ccc(C#N)cc2)Cc2ccccc2)cc1 (configuration not stated)
inactive: dose: 50.0 mg/kg/injection, schedule: Q01DX001 (ip), vehicle: saline 93 % of control | [1] 102 % of control | [2] 104 % of control

Cc1cc(=O)[nH]c(N2CCCCC2)n1
inactive: [3] 111 % of control | [1] 95 % of control | [2] 101 % of control

CCCCCCCCCCCOc1ccc(C=Nc2ccc(C)cc2)cc1
inactive: [4] 101 % of control | [5] 98 % of control | [6] 98 % of control

CCNC(=O)C1C2C=CC(CC2)C1C(=O)NCC (configuration not stated)
inactive: [7] 87 % of control | [8] 96 % of control | [9] 96 % of control

O=C(Oc1c(Cl)cc(S(=O)(=O)F)cc1Cl)c1ccc([N+](=O)[O-])cc1
inactive: dose: 100.0 mg/kg/injection, schedule: Q04DX002 (ip), vehicle: gum acacia 101 % of control | dose: 200.0 mg/kg/injection, schedule: Q04DX002 (ip), vehicle: gum acacia 99 % of control | dose: 400.0 mg/kg/injection, schedule: Q04DX002 (ip), vehicle: gum acacia 99 % of control

CCSc1c(Cl)c(Cl)c(Cl)c(Cl)c1Cl
inactive: [10] 97 % of control | [11] 100 % of control | [12] 87 % of control

C[C@]12CC[C@@H](O)C[C@H]1CC[C@@H]1[C@@H]2CC[C@]2(C)C(=O)CC[C@@H]12
inactive: dose: 100.0 mg/kg/injection, schedule: Q01DX001 (sc), vehicle: steriod suspending solution 101 % of control | dose: 100.0 mg/kg/injection, schedule: Q04DX002 (ip), vehicle: saline with Tween-80 100 % of control | dose: 200.0 mg/kg/injection, schedule: Q01DX001 (sc), vehicle: steriod suspending solution 95 % of control | dose: 200.0 mg/kg/injection, schedule: Q04DX002 (ip), vehicle: saline with Tween-80 96 % of control | dose: 400.0 mg/kg/injection, schedule: Q01DX001 (sc), vehicle: steriod suspending solution 95 % of control | dose: 400.0 mg/kg/injection, schedule: Q04DX002 (ip), vehicle: saline with Tween-80 100 % of control

O=C(c1ccccc1)c1ccc(C2CCCCC2)cc1
inactive: [13] 98 % of control | [14] 104 % of control | dose: 200.0 mg/kg/injection, schedule: Q01DX001 (ip), vehicle: carboxymethylcellulose (CMC) 98 % of control | [15] 100 % of control

NCCCCC(NC(=O)OCc1ccccc1)C(=O)CCl (configuration not stated)
inactive: dose: 10.0 mg/kg/injection, schedule: Q04DX002 (ip), vehicle: saline 109 % of control | dose: 20.0 mg/kg/injection, schedule: Q04DX002 (ip), vehicle: saline 95 % of control

Nc1nc2c(c(-c3ccc(Cl)cc3)n1)CN(c1ccc(Br)cc1)C2=O
inactive: dose: 50.0 mg/kg/injection, schedule: Q01DX009 (ip), vehicle: saline 95 % of control | dose: 100.0 mg/kg/injection, schedule: Q01DX009 (ip), vehicle: saline 108 % of control | [16] 97 % of control | dose: 200.0 mg/kg/injection, schedule: Q01DX009 (ip), vehicle: saline 92 % of control | dose: 200.0 mg/kg/injection, schedule: Q04DX003 (ip), vehicle: saline 100 % of control | dose: 400.0 mg/kg/injection, schedule: Q04DX003 (ip), vehicle: saline 92 % of control

O=[N+]([O-])c1cc2c(c3cccnc13)COCO2
inactive: [3] 102 % of control | [1] 100 % of control | [2] 94 % of control

COc1ccc(CCNC(=O)Cc2ccc(OC)c(OC)c2)cc1OC
inactive: dose: 12.5 mg/kg/injection, schedule: Q04DX003 (ip), vehicle: saline with Tween-80 94 % of control | dose: 25.0 mg/kg/injection, schedule: Q04DX003 (ip), vehicle: saline with Tween-80 110 % of control | dose: 50.0 mg/kg/injection, schedule: Q04DX003 (ip), vehicle: saline with Tween-80 100 % of control | [3] 98 % of control | [10] 94 % of control | dose: 100.0 mg/kg/injection, schedule: Q01DX009 (ip), vehicle: saline sonified 100 % of control | [17] 86 % of control | [4] 105 % of control | [7] 107 % of control | [1] 92 % of control | [11] 96 % of control | dose: 200.0 mg/kg/injection, schedule: Q01DX009 (ip), vehicle: saline sonified 100 % of control | [18] 95 % of control | [5] 112 % of control | [8] 94 % of control | [2] 93 % of control | [12] 98 % of control | dose: 400.0 mg/kg/injection, schedule: Q01DX009 (ip), vehicle: saline sonified 90 % of control | [19] 91 % of control | [6] 104 % of control | [9] 92 % of control

O=[N+]([O-])c1ccc(C(O)C=C(C(F)(F)F)C(F)(F)F)cc1 (configuration not stated)
inactive: dose: 12.5 mg/kg/injection, schedule: Q01DX009 (ip), vehicle: Klucel (hydroxypropylcellulose) (HPC) 100 % of control | dose: 25.0 mg/kg/injection, schedule: Q01DX009 (ip), vehicle: Klucel (hydroxypropylcellulose) (HPC) 97 % of control | [4] 95 % of control | [5] 95 % of control | [6] 97 % of control

S=C(Nc1ccccc1)Nc1ccc(NC(=S)Nc2ccccc2)cc1
inactive: dose: 100.0 mg/kg/injection, schedule: Q01DX001 (ip), vehicle: saline with Tween-80 96 % of control | dose: 200.0 mg/kg/injection, schedule: Q01DX001 (ip), vehicle: saline with Tween-80 92 % of control

O=C(/C=C(\c1ccccc1)N1CC1)c1ccccc1
inactive: [4] 106 % of control | [5] 110 % of control

COc1ccc(NC(=O)CC(C)(C)C(=O)O)cc1
inactive: [17] 94 % of control | [18] 92 % of control | [19] 90 % of control

CSC1=NCCCC1
inactive: dose: 75.0 mg/kg/injection, schedule: Q01DX001 (ip), vehicle: saline 105 % of control | dose: 150.0 mg/kg/injection, schedule: Q01DX001 (ip), vehicle: saline 104 % of control

C(=N\c1nncs1)/Nc1nncs1
inactive: dose: 40.0 mg/kg/injection, schedule: Q01DX015 (ip), vehicle: carboxymethylcellulose (CMC) 114 % of control and 118 % of control | [13] 102 % of control | dose: 60.0 mg/kg/injection, schedule: Q01DX015 (ip), vehicle: carboxymethylcellulose (CMC) 94 % of control | dose: 90.0 mg/kg/injection, schedule: Q01DX015 (ip), vehicle: carboxymethylcellulose (CMC) 118 % of control | [14] 98 % of control | dose: 135.0 mg/kg/injection, schedule: Q01DX015 (ip), vehicle: carboxymethylcellulose (CMC) 88 % of control | [15] 124 % of control

Cc1cc(Cl)ccc1NS(=O)(=O)c1ccc(Br)cc1
inactive: [17] 97 % of control | [7] 102 % of control | [18] 98 % of control | [8] 100 % of control | [19] 93 % of control | [9] 96 % of control

O=C(C=C(C(F)(F)F)C(F)(F)F)c1cccs1
inactive: dose: 3.12 mg/kg/injection, schedule: Q01DX009 (ip), vehicle: saline 101 % of control | dose: 6.25 mg/kg/injection, schedule: Q01DX009 (ip), vehicle: saline 101 % of control | dose: 12.5 mg/kg/injection, schedule: Q01DX009 (ip), vehicle: saline 101 % of control | dose: 12.5 mg/kg/injection, schedule: Q04DX003 (ip), vehicle: saline 93 % of control | dose: 25.0 mg/kg/injection, schedule: Q01DX009 (ip), vehicle: saline 110 % of control | dose: 25.0 mg/kg/injection, schedule: Q04DX003 (ip), vehicle: saline 97 % of control | dose: 50.0 mg/kg/injection, schedule: Q04DX003 (ip), vehicle: saline 93 % of control | [16] 98 % of control

O=C(Nc1ccc(Br)cc1)Oc1ccc(-c2ccccc2)cc1
inactive: dose: 50.0 mg/kg/injection, schedule: Q01DX009 (ip), vehicle: Klucel (hydroxypropylcellulose) (HPC) 95 % of control | [10] 95 % of control and 91 % of control | [11] 90 % of control | [12] 86 % of control and 87 % of control
